Data reported in ChEMBL document CHEMBL1131519, “1,2-Benzisothiazol-3-one 1,1-dioxide inhibitors of human mast cell tryptase” (J Med Chem, 1998).

Key:
Tryptase = Tryptase (Homo sapiens, UniProt Q9BZJ3+Q15661+Q9NRR2); test: Inhibitory activity was measured against human mast cell tryptase.; type: protein assay
Prothrombin = Prothrombin (Homo sapiens, UniProt P00734); test: Inhibitory activity was measured against thrombin.
Neutrophil elastase = biological target: T1, Neutrophil elastase (Homo sapiens, UniProt P08246); test: Inhibitory activity was measured against human leukocyte elastase.
T1 sequence (P08246 whole entry): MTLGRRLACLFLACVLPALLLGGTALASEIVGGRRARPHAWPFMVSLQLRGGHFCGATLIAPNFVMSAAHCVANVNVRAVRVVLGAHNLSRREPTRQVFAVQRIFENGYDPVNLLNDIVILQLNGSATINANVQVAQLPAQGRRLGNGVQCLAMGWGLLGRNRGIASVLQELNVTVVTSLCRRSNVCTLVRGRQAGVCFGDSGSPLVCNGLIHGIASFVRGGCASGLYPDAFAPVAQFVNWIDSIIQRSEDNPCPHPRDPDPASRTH

[1] = biological target: Urokinase-type plasminogen activator (Homo sapiens, UniProt P00749); test: Inhibitory activity was measured against urokinase.
Plasminogen = Plasminogen (Homo sapiens, UniProt P00747); test: Inhibitory activity was measured against plasmin.
Plasminogen, sequence (P00747 97-580 limits assumed): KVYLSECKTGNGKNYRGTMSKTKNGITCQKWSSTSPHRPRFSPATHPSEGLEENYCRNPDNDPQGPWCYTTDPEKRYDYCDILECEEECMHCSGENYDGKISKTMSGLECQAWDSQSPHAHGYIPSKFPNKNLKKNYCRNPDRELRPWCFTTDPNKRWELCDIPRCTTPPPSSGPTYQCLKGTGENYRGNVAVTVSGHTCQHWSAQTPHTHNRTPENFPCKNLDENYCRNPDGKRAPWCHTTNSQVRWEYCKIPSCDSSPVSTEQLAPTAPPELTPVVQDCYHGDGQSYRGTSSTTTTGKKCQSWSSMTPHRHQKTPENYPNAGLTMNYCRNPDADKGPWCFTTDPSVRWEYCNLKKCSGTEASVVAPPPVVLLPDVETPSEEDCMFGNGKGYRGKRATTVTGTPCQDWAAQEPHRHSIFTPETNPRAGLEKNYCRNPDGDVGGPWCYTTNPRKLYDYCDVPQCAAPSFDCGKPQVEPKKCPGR
Plasminogen, sequence (P00747 581-810 limits assumed): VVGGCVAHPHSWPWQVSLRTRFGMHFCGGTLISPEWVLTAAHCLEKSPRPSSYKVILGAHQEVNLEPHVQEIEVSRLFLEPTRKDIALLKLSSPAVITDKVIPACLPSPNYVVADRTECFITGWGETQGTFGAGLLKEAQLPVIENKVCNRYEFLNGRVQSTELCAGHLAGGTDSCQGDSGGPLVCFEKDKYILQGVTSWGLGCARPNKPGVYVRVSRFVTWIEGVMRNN

Coagulation factor X = Coagulation factor X (Homo sapiens, UniProt P00742); test: Inhibitory activity was measured against Coagulation factor X
Coagulation factor X, sequence (P00742 41-179 limits assumed): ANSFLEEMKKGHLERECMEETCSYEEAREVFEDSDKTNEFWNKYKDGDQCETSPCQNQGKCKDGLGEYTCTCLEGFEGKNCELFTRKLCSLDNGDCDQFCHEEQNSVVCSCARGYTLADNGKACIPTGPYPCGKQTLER
Coagulation factor X, sequence (P00742 235-488 limits assumed): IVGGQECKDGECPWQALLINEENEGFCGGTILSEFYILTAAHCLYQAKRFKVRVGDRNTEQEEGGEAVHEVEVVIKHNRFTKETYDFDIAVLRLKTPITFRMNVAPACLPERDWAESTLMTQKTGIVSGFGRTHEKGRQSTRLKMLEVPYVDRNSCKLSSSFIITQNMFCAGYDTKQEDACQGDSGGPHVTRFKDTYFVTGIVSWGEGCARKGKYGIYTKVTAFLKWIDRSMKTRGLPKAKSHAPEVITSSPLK

SMILES | IC50 (Tryptase) [µM] | other results
O=C(NCc1ccccc1)Nc1ccc(C(=O)OCN2C(=O)c3ccccc3S2(=O)=O)cc1 | 0.95 | –
CC(C)(C)OC(=O)N[C@H](CCCCNC(=O)OCc1ccccc1)C(=O)OCN1C(=O)c2ccccc2S1(=O)=O | 12.2 | –
O=C(OCN1C(=O)c2ccccc2S1(=O)=O)c1ccc(OCCOc2ccccc2)cc1 | > 33 | –
O=C(Nc1cccc(C(=O)OCN2C(=O)c3ccccc3S2(=O)=O)c1)OCc1ccccc1 | > 33 | –
O=C(Nc1ccc(C(=O)OCN2C(=O)c3ccccc3S2(=O)=O)cc1)OCc1ccccc1 | 0.0643 | IC50 (Prothrombin): > 33 µM; IC50 (Neutrophil elastase): 2.66 µM
O=C(CCCCCNC(=O)OCc1ccccc1)OCN1C(=O)c2ccccc2S1(=O)=O | 0.436 | –
O=C(Cc1ccccc1)NCc1ccc(C(=O)OCN2C(=O)c3ccccc3S2(=O)=O)cc1 | 0.132 | –
O=C(NCc1ccc(C(=O)OCN2C(=O)c3ccccc3S2(=O)=O)cc1)Oc1ccccc1 | 0.63 | –
O=C(NCCc1ccccc1)c1ccc(C(=O)OCN2C(=O)c3ccccc3S2(=O)=O)cc1 | 0.679 | –
O=C(NCc1ccc(C(=O)OCN2C(=O)c3ccccc3S2(=O)=O)cc1)OCc1ccccc1 | 0.352 | –
O=C(CCCCNC(=O)OCc1ccccc1)OCN1C(=O)c2ccccc2S1(=O)=O | 0.11 | IC50 [1]: > 33 µM; IC50 (Prothrombin): > 33 µM; IC50 (Plasminogen): 33 µM; IC50 (Neutrophil elastase): 1.44 µM; IC50 (Coagulation factor X): > 33 µM
O=C(CCNC(=O)OCc1ccccc1)OCN1C(=O)c2ccccc2S1(=O)=O | 0.854 | IC50 [1]: > 33 µM; IC50 (Prothrombin): > 33 µM; IC50 (Plasminogen): > 33 µM; IC50 (Neutrophil elastase): 2.26 µM; IC50 (Coagulation factor X): > 33 µM
O=C(CNC(=O)OCc1ccccc1)OCN1C(=O)c2ccccc2S1(=O)=O | 6.94 | –
O=C(CCc1ccccc1)Nc1ccc(C(=O)OCN2C(=O)c3ccccc3S2(=O)=O)cc1 | 0.17 | –
O=C(CCCNC(=O)OCc1ccccc1)OCN1C(=O)c2ccccc2S1(=O)=O | 0.349 | –
O=C(NCc1ccc(C(=O)OCN2C(=O)c3ccccc3S2(=O)=O)cc1)Nc1ccccc1 | 0.157 | –
CC(C)(C)OC(=O)N[C@@H](CCCCNC(=O)OCc1ccccc1)C(=O)OCN1C(=O)c2ccccc2S1(=O)=O | 0.352 | –
Nc1ccc(C(=O)OCN2C(=O)c3ccccc3S2(=O)=O)cc1 | > 33 | –
O=C(CCNC(=O)OCc1ccccc1)NCCC(=O)OCN1C(=O)c2ccccc2S1(=O)=O | > 33 | –
CC(C)(C)OC(=O)NCCCCCC(=O)OCN1C(=O)c2ccccc2S1(=O)=O | 5.37 | –
